Holding throughout (type): cell-based
The test system of test [1] is A. suillum. Briefly: Fe(II) oxidation by A. suillum in anoxic culture with nitrate as electron acceptor. Particulars: 10 mM Fe(II) as FeCl2, 10 mM acetate as cosubstrate, within 7 days. How it is done: A. suillum readily oxidized (10 mM) Fe(II) in the form of FeCl2 with nitrate as the electron acceptor under strict anaerobic conditions (FIG. 8). With 10 mM acetate as a cosubstrate, more than 70% of the added iron was oxidized within 7 days. No Fe(II) was oxidized in the absence of cells or if the nitrate was omitted (data not shown). Fe(II) oxidation was initiated after complete mineralization of acetate to CO2, and growth was not associated with this metabolism.
When acetate was added as an additional carbon and energy source, cell density increased concomitant with acetate oxidation. Fe(II) oxidation occurred after acetate had been depleted and the culture had reached stationary phase (FIG. 8).

Test [2] relates to Desulfovibrio vulgaris. Briefly: Inhibition of sulfidogenesis (sulfate reduction to sulfide) by D. vulgaris cultures. How it is done: Twelve tubes of basal anaerobic medium containing 15 mM lactate and 15 mM sulfate were inoculated with an active culture of D. vulgaris and incubated for 6 hours at 30° C., until a visible increase in optical density was observed. After six hours, the tubes were further inoculated with A. suillum and 15 mM chlorate prior to incubation overnight at 30° C., as outlined in Table 2.

Test [3] deals with marine sediment slurry microcosms. Briefly: Sulfide inhibition in marine sediment slurry microcosms. Particulars: chlorate added with Dechloromarinus strain NSS, incubation over 250 hours. The source says: In the absence of chlorate and Dechloromarinus strain NSS sulfide is readily produced.

As for `[Cl][Fe][Cl]` [FeCl2, Ferrous chloride], the added iron oxidized entry in test [1] is reported as “more than 70%”.
As for `[O-][Cl+2]([O-])O` [chlorate], the “sulfide production by D. vulgaris relative to control cells incubated without chlorate” value in test [2] (15 mM chlorate alone, 24 hours, lactate as electron donor) stood at 49%. In addition, the “sulfide production by D. vulgaris relative to control cells incubated in the absence of A. suillum and chlorate” value in test [2] (15 mM chlorate together with A. suillum, 24-hour incubation) was determined as 17%. Also, in test [2] (relatively low concentrations (15 mM)), the “antimicrobial activity against D. vulgaris” value is “has antimicrobial activity against D. vulgaris”. For the same compound, the “time course of sulfidogenesis by D. vulgaris (FIG. 14)” value in test [2] (treated with A. suillum (PS) and chlorate at 48 hours, relative to untreated control) was “immediate inhibition of sulfide production and removal of sulfide from the medium”. The “sulfide production in marine sediment slurry microcosms (FIG. 12)” value in test [3] is recorded as “sulfide inhibition”.

The values above are taken from patent publication US20160017206A1, “METHODS FOR IMMEDIATE SOURING CONTROL IN GASES OR FLUIDS PRODUCED FROM SULFIDOGENIC RESERVOIR SYSTEMS” (THE REGENTS OF THE UNIVERSITY OF CALIFORNIA, priority 2013, published 2016).
